Data on 8 compounds can be found in PubChem BioAssay (NCI).

Test systems include OVCAR-4 ovarian; SF-539 CNS; UACC-257 melanoma; HCC-2998 colon; CCRF-CEM leukemia; ACHN renal; IGROV1 ovarian; SK-MEL-28 melanoma; SF-295 CNS; SW-620 colon; OVCAR-5 ovarian; A549 NSCLC; NCI-H23 lung; EKVX NSCLC; A498 renal; DU-145 prostate; MDA-MB-435; BT-549 breast; NCI/ADR-RES ovarian; PC-3 prostate.
Test in all cases: NCI-60 cell line screen, 48 h

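Following 48 hours of exposure in 96-well plates, responses at five concentrations were used to interpolate endpoints linearly. TGI: concentration producing complete growth inhibition.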

Take `C[C@@H]1OC2(O)[C@H]3CCCN3S(=O)(=O)CCN2C1=O` (stereo partly specified): the TGI with OVCAR-4 ovarian, in the assay with SF-539 CNS, with UACC-257 melanoma, in the assay on HCC-2998 colon, in the assay on CCRF-CEM leukemia and with ACHN renal was over 100 µM in each case. For the same compound, the TGI in the assay with IGROV1 ovarian, with SK-MEL-28 melanoma, in the assay on SF-295 CNS, in the assay on SW-620 colon, in the assay on OVCAR-5 ovarian and with A549 NSCLC was over 100 µM in each case. The TGI in the assay with NCI-H23 lung, with EKVX NSCLC and in the assay on A498 renal was over 100 µM each time.

Consider `COc1cc(/C=N/c2ccccn2)cc(OC)c1OC`, for which the TGI with DU-145 prostate, in the assay with OVCAR-4 ovarian, in the assay with SF-539 CNS, in the assay with UACC-257 melanoma, in the assay on HCC-2998 colon and in the assay on CCRF-CEM leukemia was over 100 µM each time. Besides, the TGI is over 100 µM in the assay with ACHN renal; over 100 µM with IGROV1 ovarian; over 100 µM with SK-MEL-28 melanoma; over 100 µM in the assay with SF-295 CNS; 58.6 µM in the assay on MDA-MB-435; over 100 µM with SW-620 colon. For the same compound, the TGI with OVCAR-5 ovarian, in the assay on BT-549 breast, in the assay with A549 NSCLC, with NCI-H23 lung, in the assay on EKVX NSCLC and in the assay on NCI/ADR-RES ovarian was over 100 µM in each case. Besides, the TGI in the assay with A498 renal was over 100 µM.

As to `Oc1cnc2c(O)cccc2c1`, the TGI is over 100 µM with DU-145 prostate; 96.6 µM in the assay with SF-539 CNS; over 100 µM in the assay on UACC-257 melanoma; over 100 µM in the assay with HCC-2998 colon; 92.9 µM in the assay on ACHN renal; over 100 µM in the assay with IGROV1 ovarian. Moreover, the TGI in the assay with SK-MEL-28 melanoma, in the assay on SF-295 CNS, with MDA-MB-435, in the assay with SW-620 colon, with OVCAR-5 ovarian and in the assay on A549 NSCLC was over 100 µM throughout. Besides, the TGI is 57.2 µM in the assay with EKVX NSCLC, 66.5 µM in the assay with NCI/ADR-RES ovarian, over 100 µM in the assay on A498 renal and over 100 µM in the assay on PC-3 prostate.

As to `N#C/C(=C\c1cc(O)ccc1O)C(N)=O`, the TGI is over 100 µM with OVCAR-4 ovarian; over 100 µM in the assay with SF-539 CNS; over 100 µM in the assay on UACC-257 melanoma; over 100 µM in the assay with HCC-2998 colon; 53.9 µM in the assay on CCRF-CEM leukemia; over 100 µM in the assay on ACHN renal. Also, the TGI with IGROV1 ovarian, in the assay with SK-MEL-28 melanoma, in the assay with SF-295 CNS, in the assay on SW-620 colon, in the assay with OVCAR-5 ovarian and with A549 NSCLC was over 100 µM throughout. Also, the TGI with NCI-H23 lung, in the assay on EKVX NSCLC and in the assay with A498 renal was over 100 µM in each case.

In the case of `Nc1ncnc2c1ncn2-c1ccc([N+](=O)[O-])cn1`, the TGI with DU-145 prostate, in the assay with OVCAR-4 ovarian, with SF-539 CNS, in the assay on UACC-257 melanoma, with HCC-2998 colon and with CCRF-CEM leukemia was over 100 µM each time. Besides, the TGI in the assay with ACHN renal, in the assay with SK-MEL-28 melanoma, with SF-295 CNS, in the assay on MDA-MB-435, in the assay on SW-620 colon and in the assay with OVCAR-5 ovarian was over 100 µM throughout. The TGI with BT-549 breast, with A549 NSCLC, in the assay with NCI-H23 lung, in the assay on NCI/ADR-RES ovarian and in the assay with A498 renal was over 100 µM in each case.

Regarding `NC(=O)c1nnsc1NN=O`, the TGI with DU-145 prostate, in the assay on OVCAR-4 ovarian, with SF-539 CNS, with UACC-257 melanoma, in the assay on HCC-2998 colon and in the assay with CCRF-CEM leukemia was over 100 µM in each case. Also, the TGI in the assay on ACHN renal, with IGROV1 ovarian, in the assay on SK-MEL-28 melanoma, in the assay on SF-295 CNS, with MDA-MB-435 and in the assay with SW-620 colon was over 100 µM throughout. The TGI with OVCAR-5 ovarian, in the assay with A549 NSCLC, in the assay with NCI-H23 lung, in the assay on EKVX NSCLC, in the assay with NCI/ADR-RES ovarian and in the assay with A498 renal was over 100 µM throughout. Moreover, in the assay with PC-3 prostate, the TGI is over 100 µM.

`C[C@@H]1O[C@]2(O)[C@@H]3CCCN3S(=O)(=O)CCN2C1=O`: the TGI with OVCAR-4 ovarian, with SF-539 CNS, with UACC-257 melanoma, in the assay with HCC-2998 colon, in the assay on CCRF-CEM leukemia and in the assay with ACHN renal was over 100 µM in each case. In addition, the TGI in the assay with IGROV1 ovarian, in the assay with SK-MEL-28 melanoma, with SF-295 CNS, with SW-620 colon, in the assay on OVCAR-5 ovarian and in the assay on A549 NSCLC was over 100 µM each time. For the same compound, the TGI in the assay with NCI-H23 lung, in the assay on EKVX NSCLC and in the assay with A498 renal was over 100 µM in each case.

Take `CCN(CC)CCC1(C2CCCCC2)CCC(=O)NC1=O` (stereo unspecified): the TGI in the assay with OVCAR-4 ovarian, with SF-539 CNS, with UACC-257 melanoma, in the assay on HCC-2998 colon, in the assay on CCRF-CEM leukemia and with ACHN renal was over 100 µM each time. For the same compound, the TGI in the assay with IGROV1 ovarian, with SK-MEL-28 melanoma, in the assay on SF-295 CNS, with SW-620 colon, in the assay with OVCAR-5 ovarian and with A549 NSCLC was over 100 µM throughout. The TGI in the assay on NCI-H23 lung, in the assay with EKVX NSCLC and in the assay with A498 renal was over 100 µM throughout.
